Read-outs that look alike come from different tables or passages of the source.
How the values were obtained:
Assay type in all cases: cell-based
[1] = tested on: HCT-116 (human colorectal cancer cell line); experiment: MTT cytotoxicity assay, HCT-116 under anoxia or normoxia; conditions: for HCT-116 Value = IC50(normoxia)/IC50(anoxia): HCT-116, activity promotion under anoxia, >100 set as 100; for IC50: Homo sapiens
Protocol: (§1) We focused our attention on the cytotoxicity of the four series of newly-synthesized compounds (10a–e, 11a–e, 12a–e, and 13a–e) under normoxic or anoxic conditions.
(§2) The data was calculated by the Logit method and presented as IC50 values in Table 1.
(§3) All of the newly-synthesized compounds were screened for in vitro cytotoxicity by MTT assay. The exponentially-growing MRC-5, HCT-116, MDA-MB-231, and HT-29 cells were allowed to grow until 80% confluency, the culture medium was discarded, digested with trypsin, separated centrifugally, then fresh culture medium was added and blown gently into single-cell suspension. Then, the cell suspension was seeded into each well of 96-well microculture plates at a concentration of 1.5 × 10^3–3 × 10^3 cells/well.
(§4) The cells were incubated with 50 μL of 2 mg/mL MTT solution for 4 h in a humidified incubator. The supernatant was discarded, and the media were then replaced with 200 μL of dimethyl sulfoxide to dissolve the purple colored formazan crystals formed in the wells, and their absorbances were measured at 492 nm with a microplate reader (Synergy-HT, BioTek Instruments, Winooski, VT, USA); 200 μL DMSO was set as the blank control.
(§5) The anoxia condition was achieved by placing cells in a sealed hypoxia incubator chamber (Catalog Number 27310, Stemcell Technologies, Inc., Vancouver, BC, Canada) filled with 5% CO2 and 95% N2.

[2] = tested on: MRC-5 (human fetal lung fibroblast cells, normal lung cell); experiment: MTT cytotoxicity assay, MRC-5 normal cells; conditions: MRC5, MRC-5, normoxia, 96 h MTT
Protocol: as §1, §2, §3, §4

[3] = tested on: MDA-MB-231 (human breast carcinoma cell line, CA IX negative); experiment: MTT cytotoxicity assay, MDA-MB-231 under anoxia or normoxia; conditions: for IC50: Homo sapiens; for MDA-MB-231 Value = IC50(normoxia)/IC50(anoxia): MDA-MB-231, activity promotion under anoxia, >100 set as 100
Protocol: as §1, §2, §3, §4, §5

[4] = tested on: HT-29 (human colon carcinoma cell line, overexpresses high amounts of CA IX); experiment: MTT cytotoxicity assay, HT-29 under anoxia or normoxia; conditions: for IC50: Homo sapiens; for HT-29 Value = IC50(normoxia)/IC50(anoxia): HT-29, activity promotion under anoxia
Protocol: as §1, §2, §3, §4, §5

[5] = HCT-116, anoxia 24 h then normoxia 72 h, MTT, read-out: IC50 HCT-116 Anoxia
[6] = HCT-116, normoxia, 96 h MTT, read-out: IC50 HCT-116 Normoxia
[7] = MDA-MB-231, anoxia 24 h then normoxia 72 h, MTT, read-out: IC50 MDA-MB-231 Anoxia
[8] = MDA-MB-231, normoxia, 96 h MTT, read-out: IC50 MDA-MB-231 Normoxia
[9] = HT-29, anoxia 24 h then normoxia 72 h, MTT, read-out: IC50 HT-29 Anoxia
[10] = HT-29, normoxia, 96 h MTT, read-out: IC50 HT-29 Normoxia

| SMILES | HCT-116 Value = IC50(normoxia)/IC50(anoxia) [1] | IC50 [1, 5] | IC50 [1, 6] | IC50 [2] | IC50 [3, 7] | IC50 [3, 8] | MDA-MB-231 Value = IC50(normoxia)/IC50(anoxia) [3] | IC50 [4, 9] | IC50 [4, 10] | HT-29 Value = IC50(normoxia)/IC50(anoxia) [4] |
| --- | --- | --- | --- | --- | --- | --- | --- | --- | --- | --- |
| Cc1c(Cl)c(=O)oc2cc(OCCn3cc(CO[C@H]4O[C@@H]5O[C@@]6(C)CC[C@H]7[C@H](C)CC[C@@H]([C@H]4C)[C@@]57OO6)nn3)ccc12 [10d, 3-Chloro-7-(2-(4-(10β-dihydroartemisininoxy)methyl)-1H-1,2,3-triazol-1-yl)ethoxy-4-methyl-2H-chromen-2-one] | 0.79 | 5.3 µM | 4.18 µM | 50.7 µM | 29.2 µM | 61.4 µM | 2.10 | 0.05 µM | 17.7 µM | – |
| CCOC(=O)c1cc2ccc(OCCn3cc(CO[C@H]4O[C@@H]5O[C@@]6(C)CC[C@H]7[C@H](C)CC[C@@H]([C@H]4C)[C@@]57OO6)nn3)cc2oc1=O [10e, Ethyl 2-oxo-7-(2-(4-(10β-dihydroartemisininoxy)methyl)-1H-1,2,3-triazol-1-yl)ethoxy-2H-chromene-3-carboxylate] | 1.79 | 28.8 µM | 51.5 µM | 52.5 µM | 91.2 µM | > 100 µM | – | 8.69 µM | 31.8 µM | 3.66 |
| C[C@H]1[C@@H](OCc2cn(CCOc3ccc4c(C(F)(F)F)cc(=O)oc4c3)nn2)O[C@@H]2O[C@@]3(C)CC[C@H]4[C@H](C)CC[C@@H]1[C@@]24OO3 [10b, 7-(2-(4-(10β-Dihydroartemisininoxy)methyl)-1H-1,2,3-triazol-1-yl)ethoxy-4-trifluoromethyl-2H-chromen-2-one] | 0.78 | 8.31 µM | 6.46 µM | 33.6 µM | 24.7 µM | 28 µM | 1.13 | 2.18 µM | 10.9 µM | 4.99 |
| Cc1cc(=O)oc2cc(OCCCn3cc(CO[C@H]4O[C@@H]5O[C@@]6(C)CC[C@H]7[C@H](C)CC[C@@H]([C@H]4C)[C@@]57OO6)nn3)ccc12 [11a, 7-(3-(4-(10β-Dihydroartemisininoxy)methyl)-1H-1,2,3-triazol-1-yl)propoxy-4-methyl-2H-chromen-2-one] | 1.36 | 6.02 µM | 8.21 µM | 15.5 µM | 17.8 µM | 51.2 µM | 2.87 | 1.22 µM | 8.78 µM | 7.17 |
| CCOC(=O)c1cc2ccc(OCCCn3cc(CO[C@H]4O[C@@H]5O[C@@]6(C)CC[C@H]7[C@H](C)CC[C@@H]([C@H]4C)[C@@]57OO6)nn3)cc2oc1=O [11e, Ethyl 2-oxo-7-(3-(4-(10β-dihydroartemisininoxy)methyl)-1H-1,2,3-triazol-1-yl)propoxy-2H-chromene-3-carboxylate] | 1.57 | 28.1 µM | 44.1 µM | 38.7 µM | 50.7 µM | 121 µM | 2.38 | 12 µM | 51.1 µM | 4.25 |
| Cc1cc(=O)oc2cc(OCCn3cc(CO[C@H]4O[C@@H]5O[C@@]6(C)CC[C@H]7[C@H](C)CC[C@@H]([C@H]4C)[C@@]57OO6)nn3)ccc12 [10a, 7-(2-(4-(10β-Dihydroartemisininoxy)methyl)-1H-1,2,3-triazol-1-yl)ethoxy-4-methyl-2H-chromen-2-one] | 0.86 | 11.9 µM | 10.3 µM | 28 µM | 36.7 µM | 52 µM | 1.42 | 1.47 µM | 12.3 µM | 8.35 |
| C[C@H]1[C@@H](OCc2cn(CCCOc3ccc4c(C(F)(F)F)cc(=O)oc4c3)nn2)O[C@@H]2O[C@@]3(C)CC[C@H]4[C@H](C)CC[C@@H]1[C@@]24OO3 [11b, 7-(3-(4-(10β-Dihydroartemisininoxy)methyl)-1H-1,2,3-triazol-1-yl)propoxy-4-trifluoromethyl-2H-chromen-2-one] | 1.38 | 9.33 µM | 12.9 µM | 43.8 µM | 36.9 µM | 72.6 µM | 1.97 | 5.06 µM | 8.23 µM | 1.63 |
| Cc1c(C)c2ccc(OCCn3cc(CO[C@H]4O[C@@H]5O[C@@]6(C)CC[C@H]7[C@H](C)CC[C@@H]([C@H]4C)[C@@]57OO6)nn3)cc2oc1=O [10c, 7-(2-(4-(10β-Dihydroartemisininoxy)methyl)-1H-1,2,3-triazol-1-yl)ethoxy-3,4-dimethyl-2H-chromen-2-one] | 0.95 | 6.89 µM | 6.51 µM | 22.3 µM | 33.2 µM | 32.3 µM | 0.97 | 1.82 µM | 21 µM | 11.50 |
| Cc1c(C)c2ccc(OCCCn3cc(CO[C@H]4O[C@@H]5O[C@@]6(C)CC[C@H]7[C@H](C)CC[C@@H]([C@H]4C)[C@@]57OO6)nn3)cc2oc1=O [11c, 7-(3-(4-(10β-Dihydroartemisininoxy)methyl)-1H-1,2,3-triazol-1-yl)propoxy-3,4-dimethyl-2H-chromen-2-one] | 1.27 | 16.6 µM | 21 µM | 60.9 µM | 39.8 µM | 56 µM | 1.41 | 23.2 µM | 19.3 µM | 0.83 |
| COc1cccc2c1C(=O)c1c(O)c3c(c(O)c1C2=O)C[C@@](O)(C(=O)CO)C[C@@H]3O[C@H]1C[C@H](N)[C@H](O)[C@H](C)O1 [DOX, doxorubicin, reference compound] | 0.39 | 0.15 µM | 0.06 µM | 0.34 µM | 0.37 µM | 0.27 µM | 0.73 | 0.05 µM | 0.09 µM | 1.74 |
| Cc1c(Cl)c(=O)oc2cc(OCCCn3cc(CO[C@H]4O[C@@H]5O[C@@]6(C)CC[C@H]7[C@H](C)CC[C@@H]([C@H]4C)[C@@]57OO6)nn3)ccc12 [11d, 3-Chloro-7-(3-(4-(10β-dihydroartemisininoxy)methyl)-1H-1,2,3-triazol-1-yl)propoxy-4-methyl-2H-chromen-2-one] | 1.28 | 6 µM | 7.68 µM | > 100 µM | 22.5 µM | 51.6 µM | 2.29 | 1.34 µM | 3.9 µM | 2.90 |

Source: PMC6273433, “Design, Synthesis and Cytotoxicity of Novel Dihydroartemisinin-Coumarin Hybrids via Click Chemistry” (Molecules, 2016)
